Biological target: T1, Glucocorticoid receptor (Homo sapiens, UniProt P04150)
T1 sequence (P04150 whole entry): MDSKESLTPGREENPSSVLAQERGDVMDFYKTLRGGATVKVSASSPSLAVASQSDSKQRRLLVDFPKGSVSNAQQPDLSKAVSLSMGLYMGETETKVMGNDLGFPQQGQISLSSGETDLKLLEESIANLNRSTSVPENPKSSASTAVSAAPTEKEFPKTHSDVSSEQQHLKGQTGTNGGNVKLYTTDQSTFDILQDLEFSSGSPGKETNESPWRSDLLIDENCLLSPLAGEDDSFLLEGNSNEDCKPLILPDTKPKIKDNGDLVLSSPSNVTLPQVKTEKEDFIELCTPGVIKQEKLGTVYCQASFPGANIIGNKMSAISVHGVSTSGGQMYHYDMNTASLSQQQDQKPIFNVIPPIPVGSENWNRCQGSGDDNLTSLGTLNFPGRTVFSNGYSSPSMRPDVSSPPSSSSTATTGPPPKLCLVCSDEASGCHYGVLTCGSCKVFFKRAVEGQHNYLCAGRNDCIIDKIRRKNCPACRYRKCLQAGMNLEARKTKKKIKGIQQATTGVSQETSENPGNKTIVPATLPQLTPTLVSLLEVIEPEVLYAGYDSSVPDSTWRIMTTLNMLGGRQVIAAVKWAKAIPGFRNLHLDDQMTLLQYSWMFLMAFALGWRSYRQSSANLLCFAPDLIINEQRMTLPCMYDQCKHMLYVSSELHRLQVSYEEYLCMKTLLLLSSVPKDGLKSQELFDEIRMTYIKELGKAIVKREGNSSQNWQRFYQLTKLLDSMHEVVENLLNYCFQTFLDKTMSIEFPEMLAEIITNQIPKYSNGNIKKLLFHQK
Test: Activity at glucocorticoid receptor in human A549 cells assessed as effect on GRE promoter response by luciferase reporter assay
Type: cell-based

EC50 | SMILES
173 µM | CCCC(CC(=O)O)C1=C2O[C@H](C(C)(C)O)C[C@@]23C[C@H](CC(O)C(C)(C)O)C(C)(C)[C@@](C(=O)C(C)CC)(C1=O)C3=O (some centres not stated) [SUNDAICUMONE A]
75 µM | CCCC(CC(=O)O)C1=C2O[C@H](C(C)(C)O)C[C@@]23C[C@H](CC=C(C)C)C(C)(C)[C@@](C(=O)C(C)CC)(C1=O)C3=O (some centres not stated) [SUNDAICUMONE B]
